Source: US20090233948A1, “Inhibitors of nucleoside phosphorylases and nucleosidases” (priority 2005, published 2009)
Read-outs that look alike come from different tables or passages of the source.

Target: T1, human PNP (Homo sapiens, UniProt P00491)
T1 sequence (P00491 1-289): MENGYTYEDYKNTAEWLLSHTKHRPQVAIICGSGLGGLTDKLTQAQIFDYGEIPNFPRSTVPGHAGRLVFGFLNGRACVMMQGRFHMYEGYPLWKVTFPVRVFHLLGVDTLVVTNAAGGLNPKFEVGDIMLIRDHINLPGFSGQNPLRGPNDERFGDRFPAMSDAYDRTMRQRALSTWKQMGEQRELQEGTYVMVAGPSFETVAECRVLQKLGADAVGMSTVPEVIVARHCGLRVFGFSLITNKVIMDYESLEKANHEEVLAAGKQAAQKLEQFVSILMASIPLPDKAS
Test: Inhibition of human PNP: phosphorolysis of inosine, xanthine oxidase coupled spectrophotometric assay (slow-onset tight-binding analysis)
Format: biochemical
Settings: huPNP 1.4 nM, 1 mM inosine, 50 mM KHPO4 pH 7.4, 25° C.
Protocol: Initial (Ki) and equilibrium (Ki*) dissociation constants of DAD-Et-Immucillin-H were determined for human PNP.
Inhibitor dissociation constants for the phosphorolysis of inosine were based on initial and equilibrium reaction rate measurements with varied inhibitor concentrations (Miles, R. W., Tyler, P. C., Furneaux, R. H., Bagdassarian, C. K. and Schramm, V. L. (1998) One-third-the-sites transition state inhibitors for purine nucleoside phosphorylase, Biochemistry 37, 8615-8621; Morrison, J. F. and Walsh, C. T. (1988) The behaviour and significance of slow-binding enzyme inhibitors, Adv. Enzymol. Relat. Areas Mol. Biol. 61, 201-301). […] Hypoxanthine formed by phosphorolysis of inosine was oxidized to uric acid and monitored spectrophotometrically at 293 nm (extinction coefficient for uric acid ε293=12.9 mM^−1cm^−1). Enzyme concentration was adjusted to give absorbance changes not exceeding 1.0 during the time required to characterize initial and final slow-onset inhibition equilibria. […] Ki was determined by fitting the initial rates at different inhibitor concentration to the equation for competitive inhibition: νi=(kcat×S)/(Km(1+I/Ki)+S), where μi is initial reaction rate, kcat is the catalytic turnover number, Km is the Michaelis constant, Ki is the dissociation constant of enzyme-inhibitor complex (EI), I is inhibitor concentration and S is substrate concentration. […]

O=c1[nH]cnc2c(CCN3C[C@@H](CO)[C@H](O)C3)c[nH]c12 [Compound 1, (3S,4S)-1-[2-(9-Deaza-hypoxanthin-9-yl)ethyl]-3-hydroxy-4-hydroxymethylpyrrolidine] was tested, and the Ki (after slow onset equilibrium, read-out: Equilibrium dissociation constant (Ki*)) was 0.46 ± 0.05 nM and the Ki (initial inhibitor binding step, read-out: Initial dissociation constant (Ki)) was 1.6 ± 0.3 nM.
